The target in assay [1] is T1, GK-GKRP (interaction between glucokinase and glucokinase regulatory protein) (Homo sapiens, UniProt Q14397).
T1 construct: made in house; host or cells: GKRP: baculovirus system
T1 sequence (Q14397 1-625): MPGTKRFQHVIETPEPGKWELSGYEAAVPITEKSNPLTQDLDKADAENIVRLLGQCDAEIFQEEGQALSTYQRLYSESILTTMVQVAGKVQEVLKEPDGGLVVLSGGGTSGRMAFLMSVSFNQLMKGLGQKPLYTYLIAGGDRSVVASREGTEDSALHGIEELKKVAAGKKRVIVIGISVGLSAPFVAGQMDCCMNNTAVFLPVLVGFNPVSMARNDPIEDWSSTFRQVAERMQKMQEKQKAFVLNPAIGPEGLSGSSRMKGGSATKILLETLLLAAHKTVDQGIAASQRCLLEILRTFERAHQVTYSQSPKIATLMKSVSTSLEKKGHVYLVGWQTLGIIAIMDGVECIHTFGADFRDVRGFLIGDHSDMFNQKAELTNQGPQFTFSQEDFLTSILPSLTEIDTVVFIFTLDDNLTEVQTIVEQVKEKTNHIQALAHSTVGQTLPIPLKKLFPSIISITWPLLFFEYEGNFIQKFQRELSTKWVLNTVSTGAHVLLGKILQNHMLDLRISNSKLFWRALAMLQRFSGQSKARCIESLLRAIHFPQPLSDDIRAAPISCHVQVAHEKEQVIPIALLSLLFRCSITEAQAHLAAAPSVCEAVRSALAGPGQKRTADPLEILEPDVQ
Description: GK-GKRP Binding Assay (Binding), AlphaScreen. How it is done:
GK-GKRP Binding Assay Protocol (Binding)
This assay is used to directly measure the interaction between glucokinase (GK) and glucokinase regulatory protein (GKRP). Begin by preparing the following solutions. Assay Buffer: 20 mM Tris, pH 7.5/0.05% BSA/1 mM DTT/1 μM sorbitol-6-phosphate. […] Combine the following reagents in a white 96-well half area plate. Pipette 14 μl of the diluted avi-tagged GKRP into each well. Add 1 μl of compound to be tested and incubate at room temperature for 20 minutes. After 20 minutes, add 5 μl of assay buffer containing 6 nM GK-fluorescein. […] Incubate in a dark room for 2 hours at room temperature. After 2 hours read the plate using an Envision plate reader (Perkin Elmer, Waltham Mass.).
Recombinant human glucokinase (hepatic) was purified and formulated in 50 mM Tris (pH 7.5), 150 mM NaCl and 20 mM glucose previous to labeling with fluorescein. […] Unreacted dye was removed by extensive dialysis into the final formulation buffer: 25 mM Tris (pH 7.2), 150 mM NaCl, 10% glycerol and 2 mM DTT. The human glucokinase regulatory protein construct was designed with a C-terminal avitag and was expressed in a baculovirus system. Purified GKRP was incubated overnight with recombinant biotin ligase in the presence of D-biotin, ATP and MgCl2. GKRP was isolated from reaction components by chromatography on a Superdex 200 size exclusion column into: 50 mM HEPES, 150 mM NaCl and 5 mM DTT. […] Proteins were quantitated according to their calculated molar extinction coefficients at A280 and were stored at −80° C.
(§1) In the Examples, the assays are referred to as “LCMS/MS” or “Binding.”
For orientation: Bead proximity is the source of the signal in Alpha formats.

Assay [2] concerns the target T2, GK-GKRP (glucokinase / glucokinase regulatory protein) (Homo sapiens, UniProt Q14397).
T2 sequence (Q14397 1-625): T1 sequence (Q14397 1-625)
Description: GKRP LC MS/MS Biochemical Assay (LCMS/MS). The settings on record: formation of 13C-glucose-6-phosphate from 13C-glucose by LC MS/MS, human His-hepatic GK, fructose-6-phosphate. How it is done: GKRP LC MS/MS Biochemical Assay (LCMS/MS)
This assay is used to directly measure the formation of ^13C-glucose-6-phosphate from ^13C-glucose by LC MS/MS. Begin by preparing the following solutions: Compound Buffer (CB): 50 mM Tris, pH 7.5/4 mM MgCl2/6% DMSO/fresh 10 mM DTT from 1M frozen stock. Enzyme Buffer (EB): 50 mM Tris, pH 7.5/4 mM MgCl2/6% DMSO/fresh 0.1% BSA/fresh 0.01% Brij-35 (10% BSA and 1% Brij-35 stock). GK (Glucokinase) Working Stock (5×): Dilute human His-hepatic GK to 30 nM in EB buffer. […] Seal the plate and incubate for 30 minutes at room temperature while mixing. After 30 minutes add 10 μl of GK Working Stock (5×). Re-seal the plate and incubate for another 30 minutes at room temperature while mixing. After the second 30 minutes, stop the reaction by the addition of 50 μl of 100% acetonitrile, seal, and mix for 5-10 minutes. Run 10 μl of this sample through the LC MS/MS (API 3200, Applied Biosystems, Carlsbad, Calif.). […]
as §1

Setting [3] is: avi-tagged GKRP, GK-fluorescein, AlphaScreen beads, 1 μM sorbitol-6-phosphate, read-out: GK-GKRP IC50 (Binding).

Where two headings read alike, the source gives them in different places. A value given as a limit tells only on which side of the number the result lay.

As for `O=S(=O)(N[C@@H](c1cc2cccc(-c3cc(C(O)(C(F)(F)F)C(F)(F)F)ccn3)c2s1)c1ccccc1Cl)c1ccc2c(c1)OCCCO2` [Example 81, N—((R)-(2-Chlorophenyl)(7-(4-(2,2,2-trifluoro-1-hydroxy-1-(trifluoromethyl)ethyl)-2-pyridinyl)-1-benzothiophen-2-yl)methyl)-3,4-dihydro-2H-1,5-benzodioxepine-7-sulfonamide], the IC50 (usually the midpoint of a concentration-inhibition curve) in assay [1] (setting [3]) is 87 nM.
Same read-out and setting: under `O=S(=O)(N[C@H](c1nc2cccnc2s1)c1ccccc1Cl)c1ccc2c(c1)OCCCO2` (single isomer, unassigned) [Example 68 Peak #1] stands 2000 nM.
Consider `O=S(=O)(NC(c1cc2ccccc2o1)c1ccncc1Cl)c1ccc2c(c1)OCCCO2` (racemic) [Example 28, N-(1-benzofuran-2-yl(3-chloro-4-pyridinyl)methyl)-3,4-dihydro-2H-1,5-benzodioxepine-7-sulfonamide], for which the half-maximal effective concentration (EC50) (usually the concentration at which the effect is half-maximal) in assay [2] stood at 1600 nM.
As to `Nc1cccc(C(NS(=O)(=O)c2ccc3c(c2)OCCCO3)c2cc3ccccc3o2)n1` (racemic) [Example 79, N-((6-amino-2-pyridinyl)(1-benzofuran-2-yl)methyl)-3,4-dihydro-2H-1,5-benzodioxepine-7-sulfonamide], in assay [1] (setting [3]), the IC50 stood at 98 nM.
On to `O=S(=O)(NC(c1cc2ccccc2o1)c1ccccc1CCO)c1ccc2c(c1)OCCCO2` (racemic) [Example 16, N-(1-benzofuran-2-yl(2-(2-hydroxyethyl)phenyl)methyl)-3,4-dihydro-2H-1,5-benzodioxepine-7-sulfonamide], for which, in assay [2], the concentration giving a half-maximal response (EC50) was 3200 nM.
For the compound `O=S(=O)(NC(c1ccsc1)c1cc2ccccc2o1)c1ccc2c(c1)OCCCO2` (racemic) [Example 32, N-(1-benzofuran-2-yl(3-thiophenyl)methyl)-3,4-dihydro-2H-1,5-benzodioxepine-7-sulfonamide], in assay [2], the EC50 amounted to 1400 nM. This EC50 is about 2.3-fold lower than that of the compound before.
In the case of `O=S(=O)(N[C@@H](c1ccccc1)c1cc2cccc(-c3ccccn3)c2s1)c1ccc2c(c1)OCCCO2` (single isomer, unassigned) [Example 71 Peak #1], the IC50 in assay [1] (setting [3]) is 790 nM.
As for `Cc1ccccc1[C@H](NS(=O)(=O)c1ccc2c(c1)OCCCO2)c1cc2ccccc2o1` (single isomer, unassigned) [Example 2 Peak #1], the EC50 in assay [2] is above 50000 nM.
With `Cc1cccnc1[C@H](NS(=O)(=O)c1ccc2c(c1)OCCCO2)c1cc2ccccc2o1` (single isomer, unassigned) [Example 26 Peak #1], the IC50 in assay [1] (setting [3]) is above 33000 nM.
Same read-out and setting: under `COc1cccnc1C(NS(=O)(=O)c1ccc2c(c1)OCCCO2)c1nc2cccnc2s1` (racemic) [Example 69, N-((3-methoxy-2-pyridinyl)([1,3]thiazolo[5,4-b]pyridin-2-yl)methyl)-3,4-dihydro-2H-1,5-benzodioxepine-7-sulfonamide] stands 1500 nM.
Regarding `COc1ccc(S(=O)(=O)N[C@@H](c2cc3cccc(-c4cc([C@@](C)(O)C(F)(F)F)ccn4)c3s2)c2ccccc2Cl)cc1OC` [Example 84, N—((R)-(2-Chlorophenyl)(7-(4-((1R)-2,2,2-trifluoro-1-hydroxy-1-methylethyl)-2-pyridinyl)-1-benzothiophen-2-yl)methyl)-3,4-dimethoxybenzenesulfonamide], in assay [1] (setting [3]), the IC50 came out at 276 nM.
The same measure, in the same setting: under `COc1ccc(S(=O)(=O)N[C@@H](c2cc3cccc(-c4cc([C@](C)(O)C(F)(F)F)ccn4)c3s2)c2ccccc2Cl)cc1OC` [Example 86, N—((R)-(2-Chlorophenyl)(7-(4-((1S)-2,2,2-trifluoro-1-hydroxy-1-methylethyl)-2-pyridinyl)-1-benzothiophen-2-yl)methyl)-3,4-dimethoxybenzenesulfonamide] stands 72 nM; under `C[C@@](O)(c1ccnc(-c2cccc3cc([C@H](NS(=O)(=O)c4ccc5c(c4)OCCCO5)c4ccccc4Cl)sc23)c1)C(F)(F)F` [Example 83, N—((R)-(2-Chlorophenyl)(7-(4-((1R)-2,2,2-trifluoro-1-hydroxy-1-methylethyl)-2-pyridinyl)-1-benzothiophen-2-yl)methyl)-3,4-dihydro-2H-1,5-benzodioxepine-7-sulfonamide], 38 nM.
On the same count and under the same terms, with `C[C@](O)(c1ccnc(-c2cccc3cc([C@H](NS(=O)(=O)c4ccc5c(c4)OCCCO5)c4ccccc4Cl)sc23)c1)C(F)(F)F` [Example 85, N—((R)-(2-Chlorophenyl)(7-(4-((1S)-2,2,2-trifluoro-1-hydroxy-1-methylethyl)-2-pyridinyl)-1-benzothiophen-2-yl)methyl)-3,4-dihydro-2H-1,5-benzodioxepine-7-sulfonamide] the figure was 23 nM; with `O=S(=O)(N[C@@H](c1cc2ccccc2s1)c1ccccc1Cl)c1ccc2c(c1)OCC(F)CO2` (mixture of isomers) [Example 78, N—((R)-1-Benzothiophen-2-yl(2-chlorophenyl)methyl)-3-fluoro-3,4-dihydro-2H-1,5-benzodioxepine-7-sulfonamide], 47 nM.
The compound `O=S(=O)(N[C@@H](c1cc2ccccc2s1)c1ccccc1Cl)c1ccc2c(c1)OCC(O)CO2` (mixture of isomers) [Example 77, N—((R)-1-Benzothiophen-2-yl(2-chlorophenyl)methyl)-3-hydroxy-3,4-dihydro-2H-1,5-benzodioxepine-7-sulfonamide] returned an IC50 in assay [1] of 97 nM.
With `CSc1ccccc1[C@H](NS(=O)(=O)c1ccc2c(c1)OCCCO2)c1nc2cccnc2s1` (single isomer, unassigned) [Example 65 Peak #1], the IC50 in assay [1] (setting [3]) was 900 nM.
Still for that read-out and setting: under `Nc1cc(C(NS(=O)(=O)c2ccc3c(c2)OCCCO3)c2cc3ccccc3o2)ccn1` (centres unmarked) [Example 87, N-((2-Amino-4-pyridinyl)(1-benzofuran-2-yl)methyl)-3,4-dihydro-2H-1,5-benzodioxepine-7-sulfonamide] stands 4880 nM.
In the case of `COc1ccc(S(=O)(=O)N[C@@H](c2cc3cccc(-c4cc(C(O)(C(F)(F)F)C(F)(F)F)ccn4)c3s2)c2ccccc2Cl)cc1OC` [Example 82, N—((R)-(2-Chlorophenyl)(7-(4-(2,2,2-trifluoro-1-hydroxy-1-(trifluoromethyl)ethyl)-2-pyridinyl)-1-benzothiophen-2-yl)methyl)-3,4-dimethoxybenzenesulfonamide], in assay [1] (setting [3]), the IC50 stood at 907 nM.
Same read-out and setting: with `O=S(=O)(NC(c1ccccc1)c1cc2ccnc(Cl)c2s1)c1ccc2c(c1)OCCCO2` (racemic) [Example 80, N-((7-Chlorothieno[2,3-c]pyridin-2-yl)(phenyl)methyl)-3,4-dihydro-2H-1,5-benzodioxepine-7-sulfonamide] the figure was 1100 nM.
Same read-out and setting: under `COc1ccccc1[C@H](NS(=O)(=O)c1ccc2c(c1)OCCCO2)c1nc2cccnc2s1` (single isomer, unassigned) [Example 67 Peak #1] stands 2800 nM; under `O=S(=O)(N[C@@H](c1cc2ccccc2s1)c1ccccc1Cl)c1ccc2c(c1)OCC(F)(F)CO2` [Example 76, N—((R)-1-Benzothiophen-2-yl(2-chlorophenyl)methyl)-3,3-difluoro-3,4-dihydro-2H-1,5-benzodioxepine-7-sulfonamide], 620 nM.
In assay [1], `COc1ccc(S(=O)(=O)NC(c2cc3ccccc3s2)c2ccccc2SC)cc1OC` (racemic) [Example 74] gave an IC50 of 2700 nM.

For the origin of these results see patent US20140155415A1, “BENZ[…] BENZODIOXINE COMPOUNDS THAT INTERACT WITH G[…] FOR THE TREATMENT OF DIABETES” (priority 2011, published 2014).
